Test results published in patent US20040191849A1, “Method for identifying fungicides” (priority 2002, published 2004).

Key:
RPI = assay: Spectrophotometric RPI assay, increase in absorption at 290 nm (KM determination); settings: read-out: KM value; substrate of RPI; Lineweaver-Burk plot; 400 ng of RPI; without coupled enzymes
Method: The measurement was carried out with 400 ng of RPI.
The reaction volume amounted to 700 μl.

Erysiphe graminis = assay: Induction of resistance to Erysiphe graminis in a plant; format: in vivo; settings: Hordeum vulgaris; inoculated with Erysiphe graminis 4 days after treatment; 100 = maximum activity, 0 = no activity
From the text: In the case of Erysiphe graminis, the induction of resistance to this fungus, in a plant, was furthermore tested by way of example. To this end, the plant is inoculated with the pathogen 4 days after treatment of the plant with the test substance. The activity of the substance is given as efficacy in %.

[1] = tested on: ribose-phosphate isomerase; settings: Jung et al., Arch. Biochem. Biophys. 373 (2000) 409-417; cited from earlier work

Compound: O=C[C@H](O)[C@H](O)[C@H](O)COP(=O)(O)O [D-ribose-5-phosphate]
- Km (RPI): 6.3 mM

Compound: COc1ccc(S(=O)(=O)N(C)C)cc1CCC(C)NCC1CC2(CCCC2)Oc2ccccc21.O=C(O)/C=C/C(=O)O (stereo not drawn) [Example 2]
- resistance induction (efficacy) (Erysiphe graminis): 50%

Compound: phosphate
- ribose-phosphate isomerase inhibitor strength [1]: weak
